Test results taken from PubChem BioAssay (NCI).
Values joined by “and” are separate entries in the source; they are usually repeats but may differ in a detail not shown here. Equal values may be shown once.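 Briefly, cells in 96-well plates were exposed to five compound concentrations for 48 h, and endpoints were estimated by linear interpolation. Abbreviation: GI50, concentration required for 50% inhibition of growth. TGI denotes the concentration required for complete inhibition of growth.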

Columns and labels:
Test in all cases: NCI-60 cell line screen, 48 h
786-0 renal = system: 786-0 renal
A498 renal = system: A498 renal
A549 NSCLC = system: A549 NSCLC
ACHN renal = system: ACHN renal
HCC-2998 colon = system: HCC-2998 colon
HT29 colon = system: HT29 colon
LOX IMVI melanoma = system: LOX IMVI melanoma
SK-MEL-2 melanoma = system: SK-MEL-2 melanoma
SW-620 colon = system: SW-620 colon
TK-10 renal = system: TK-10 renal

Question: How did the TGI (786-0 renal) turn out when `CSC1(SC2=NCCN2)SC2(NCCN2)S1` was run?
Answer: Its TGI is 14.2 µM.

Question: What about the TGI (A498 renal) of the same compound?
Answer: The TGI was 27.9 µM.

Question: What about the TGI (A549 NSCLC) of the same compound?
Answer: Its TGI is 40.1 µM.

Question: What about the TGI (ACHN renal) of the same compound?
Answer: Its TGI is 33.2 µM.

Question: What about the TGI (HCC-2998 colon) of the same compound?
Answer: Its TGI is 29.8 µM.

Question: And the TGI (HT29 colon)?
Answer: The TGI was 38.3 µM.

Question: And the TGI (LOX IMVI melanoma)?
Answer: The TGI was 25.7 µM.

Question: What about the TGI (SK-MEL-2 melanoma) of the same compound?
Answer: The TGI was 39.4 µM.

Question: And the TGI (SW-620 colon)?
Answer: Its TGI is 51.6 µM.

Question: What about the TGI (TK-10 renal) of the same compound?
Answer: Its TGI is 18.6 µM.

Question: With `COc1cc(C(=O)/C=C/c2cccnc2Nc2ccccc2)cc(OC)c1OC` as the compound, how does the GI50 (786-0 renal) read?
Answer: The GI50 was 1.29 µM.

Question: And the TGI (786-0 renal)?
Answer: The TGI was 2.65 µM.

Question: And the GI50 (A498 renal)?
Answer: The GI50 was 1.42 µM.

Question: What about the TGI (A498 renal) of the same compound?
Answer: The TGI was 2.75 µM.

Question: And the GI50 (A549 NSCLC)?
Answer: The GI50 was 1.3 µM.

Question: What about the TGI (A549 NSCLC) of the same compound?
Answer: Its TGI is 2.86 µM.

Question: And the GI50 (ACHN renal)?
Answer: Its GI50 is 1.28 µM.

Question: What about the TGI (ACHN renal) of the same compound?
Answer: The TGI was 2.57 µM.

Question: And the GI50 (HCC-2998 colon)?
Answer: Its GI50 is 1.18 µM.

Question: And the TGI (HCC-2998 colon)?
Answer: The TGI was 2.46 µM.

Question: And the GI50 (HT29 colon)?
Answer: Its GI50 is 0.514 µM.

Question: And the TGI (HT29 colon)?
Answer: Its TGI is 2.15 µM.

Question: What about the GI50 (LOX IMVI melanoma) of the same compound?
Answer: Its GI50 is 0.499 µM.

Question: And the TGI (LOX IMVI melanoma)?
Answer: Its TGI is 1.82 µM.

Question: And the GI50 (SK-MEL-2 melanoma)?
Answer: The GI50 was 1.66 µM.

Question: What about the TGI (SK-MEL-2 melanoma) of the same compound?
Answer: Its TGI is 3.4 µM.

Question: And the GI50 (SW-620 colon)?
Answer: The GI50 was 0.422 µM.

Question: What about the TGI (SW-620 colon) of the same compound?
Answer: Its TGI is 1.66 µM.

Question: What about the GI50 (TK-10 renal) of the same compound?
Answer: The GI50 was 1.82 µM.

Question: And the TGI (TK-10 renal)?
Answer: Its TGI is 3.33 µM.

Question: What does the source list for `COc1ccc2c(c1)C(C)Cc1c(Cl)nc(C)nc1N2C` (stereo not drawn)?
Answer: GI50 (786-0 renal): 3.94 µM; TGI (786-0 renal): 32 µM; GI50 (A498 renal): 6.79 µM; TGI (A498 renal): 25 µM; GI50 (A549 NSCLC): 3 µM; TGI (A549 NSCLC): 24.4 µM; GI50 (ACHN renal): 5.61 µM; TGI (ACHN renal): > 100 µM; GI50 (HCC-2998 colon): 2.29 µM; TGI (HCC-2998 colon): 8.93 µM; GI50 (HT29 colon): 2.2 µM; TGI (HT29 colon): 8.92 µM; GI50 (LOX IMVI melanoma): 3.12 µM; TGI (LOX IMVI melanoma): 23.9 µM; GI50 (SK-MEL-2 melanoma): 10.6 µM; TGI (SK-MEL-2 melanoma): 29.5 µM; GI50 (SW-620 colon): 2.45 µM; TGI (SW-620 colon): 24.4 µM; GI50 (TK-10 renal): 4.55 µM; TGI (TK-10 renal): 38.8 µM

Question: Which GI50 (786-0 renal) does the source give for `CS(=O)(=O)Nc1ccc(N=Cc2c(O)[nH]c3ccccc23)cc1` here?
Answer: The GI50 was greater than 25 µM.

Question: And the TGI (786-0 renal)?
Answer: The TGI was greater than 25 µM.

Question: And the GI50 (A498 renal)?
Answer: The GI50 was greater than 25 µM.

Question: And the TGI (A498 renal)?
Answer: The TGI was greater than 25 µM.

Question: And the GI50 (A549 NSCLC)?
Answer: Its GI50 is greater than 25 µM.

Question: What about the TGI (A549 NSCLC) of the same compound?
Answer: Its TGI is greater than 25 µM.

Question: What about the GI50 (ACHN renal) of the same compound?
Answer: Its GI50 is greater than 25 µM.

Question: And the TGI (ACHN renal)?
Answer: The TGI was greater than 25 µM.

Question: And the GI50 (HCC-2998 colon)?
Answer: Its GI50 is greater than 25 µM.

Question: And the TGI (HCC-2998 colon)?
Answer: The TGI was greater than 25 µM.

Question: What about the GI50 (HT29 colon) of the same compound?
Answer: The GI50 was greater than 25 µM.

Question: What about the TGI (HT29 colon) of the same compound?
Answer: Its TGI is greater than 25 µM.

Question: And the GI50 (LOX IMVI melanoma)?
Answer: The GI50 was greater than 25 µM.

Question: And the TGI (LOX IMVI melanoma)?
Answer: The TGI was greater than 25 µM.

Question: And the GI50 (SK-MEL-2 melanoma)?
Answer: The GI50 was greater than 25 µM.

Question: And the TGI (SK-MEL-2 melanoma)?
Answer: Its TGI is greater than 25 µM.

Question: And the GI50 (SW-620 colon)?
Answer: The GI50 was greater than 25 µM.

Question: What about the TGI (SW-620 colon) of the same compound?
Answer: Its TGI is greater than 25 µM.

Question: And the GI50 (TK-10 renal)?
Answer: Its GI50 is greater than 25 µM.

Question: What about the TGI (TK-10 renal) of the same compound?
Answer: The TGI was greater than 25 µM.

Question: Which TGI (786-0 renal) does the source give for `O=C1CCC2(c3ccccc3)Nc3ncccc3N12` (stereo not drawn) here?
Answer: Its TGI is greater than 100 µM.

Question: What about the TGI (A498 renal) of the same compound?
Answer: Its TGI is greater than 100 µM.

Question: What about the TGI (A549 NSCLC) of the same compound?
Answer: The TGI was greater than 100 µM.

Question: What about the TGI (ACHN renal) of the same compound?
Answer: The TGI was greater than 100 µM.

Question: What about the TGI (HCC-2998 colon) of the same compound?
Answer: The TGI was greater than 100 µM.

Question: And the TGI (HT29 colon)?
Answer: Its TGI is greater than 100 µM.

Question: What about the TGI (LOX IMVI melanoma) of the same compound?
Answer: Its TGI is greater than 100 µM.

Question: What about the TGI (SK-MEL-2 melanoma) of the same compound?
Answer: The TGI was greater than 100 µM.

Question: What about the TGI (SW-620 colon) of the same compound?
Answer: Its TGI is greater than 100 µM.

Question: What about the TGI (TK-10 renal) of the same compound?
Answer: The TGI was greater than 100 µM.

Question: `CCN1C(=O)N(CC)C2C1NN=c1s/c(=C\c3cc4ccccc4[nH]3)c(=O)n12` (stereo not drawn) was tested. Which GI50 (786-0 renal) did it give?
Answer: The GI50 was 0.0387 µM.

Question: What about the TGI (786-0 renal) of the same compound?
Answer: The TGI was 22.3 µM.

Question: What about the GI50 (A498 renal) of the same compound?
Answer: The GI50 was 0.0108 µM.

Question: What about the TGI (A498 renal) of the same compound?
Answer: The TGI was 0.0628 µM.

Question: And the GI50 (A549 NSCLC)?
Answer: The GI50 was 0.0433 µM.

Question: And the TGI (A549 NSCLC)?
Answer: The TGI was greater than 100 µM.

Question: What about the GI50 (ACHN renal) of the same compound?
Answer: Its GI50 is less than 0.0157 µM.

Question: What about the TGI (ACHN renal) of the same compound?
Answer: The TGI was 20.3 µM.

Question: What about the GI50 (HCC-2998 colon) of the same compound?
Answer: Its GI50 is 0.0382 µM.

Question: And the TGI (HCC-2998 colon)?
Answer: The TGI was greater than 100 µM.

Question: And the GI50 (HT29 colon)?
Answer: Its GI50 is less than 0.01 µM.

Question: What about the TGI (HT29 colon) of the same compound?
Answer: Its TGI is greater than 100 µM.

Question: What about the GI50 (LOX IMVI melanoma) of the same compound?
Answer: Its GI50 is less than 0.01 µM.

Question: What about the TGI (LOX IMVI melanoma) of the same compound?
Answer: Its TGI is greater than 100 µM.

Question: And the TGI (SK-MEL-2 melanoma)?
Answer: Its TGI is 33.9 µM.

Question: And the GI50 (SW-620 colon)?
Answer: Its GI50 is 0.0277 µM.

Question: What about the TGI (SW-620 colon) of the same compound?
Answer: The TGI was greater than 100 µM.

Question: And the GI50 (TK-10 renal)?
Answer: Its GI50 is 2.11 µM.

Question: And the TGI (TK-10 renal)?
Answer: The TGI was 32.3 µM.

Question: For `Nc1nc(N)c(N=O)c(OCC2CCCCC2)n1`, which GI50 (786-0 renal) is on record?
Answer: Its GI50 is 20.9 µM.

Question: What about the TGI (786-0 renal) of the same compound?
Answer: Its TGI is > 100 µM and 84.1 µM.

Question: And the TGI (A498 renal)?
Answer: The TGI was 43 µM and 50.2 µM.

Question: What about the GI50 (A549 NSCLC) of the same compound?
Answer: The GI50 was 15 µM.

Question: And the TGI (A549 NSCLC)?
Answer: The TGI was > 100 µM and 79.7 µM.

Question: And the GI50 (ACHN renal)?
Answer: The GI50 was 5.47 µM.

Question: And the TGI (ACHN renal)?
Answer: The TGI was > 100 µM and 34.3 µM.

Question: And the GI50 (HCC-2998 colon)?
Answer: The GI50 was 22.5 µM.

Question: What about the TGI (HCC-2998 colon) of the same compound?
Answer: The TGI was greater than 100 µM.

Question: What about the GI50 (HT29 colon) of the same compound?
Answer: The GI50 was 6.88 µM.

Question: And the TGI (HT29 colon)?
Answer: The TGI was > 100 µM and 74.2 µM.

Question: What about the GI50 (LOX IMVI melanoma) of the same compound?
Answer: The GI50 was 4.77 µM.

Question: What about the TGI (LOX IMVI melanoma) of the same compound?
Answer: The TGI was greater than 100 µM.

Question: What about the GI50 (SK-MEL-2 melanoma) of the same compound?
Answer: The GI50 was 8.52 µM.

Question: What about the TGI (SK-MEL-2 melanoma) of the same compound?
Answer: Its TGI is 32.8 µM and 24.6 µM.

Question: What about the GI50 (SW-620 colon) of the same compound?
Answer: Its GI50 is 20.4 µM.

Question: And the TGI (SW-620 colon)?
Answer: Its TGI is greater than 100 µM.

Question: What about the GI50 (TK-10 renal) of the same compound?
Answer: The GI50 was 15.9 µM.

Question: And the TGI (TK-10 renal)?
Answer: The TGI was 57 µM and 34.5 µM.

Question: What does the source list for `COc1ccc(/C=C2\CCC(CN(C)C)C2=O)cc1OC` (stereo not drawn)?
Answer: TGI (786-0 renal): 6.42 µM; TGI (A498 renal): 27.8 µM; TGI (A549 NSCLC): 37.4 µM; TGI (ACHN renal): 15.9 µM; TGI (HCC-2998 colon): 14.5 µM; TGI (HT29 colon): 23.5 µM; TGI (LOX IMVI melanoma): 3.96 µM; TGI (SK-MEL-2 melanoma): 26.9 µM; TGI (SW-620 colon): 4.44 µM; TGI (TK-10 renal): 18.7 µM
